Experimental data from patent US8710045B2, “Agents for preventing and treating disorders involving modulation of the ryanodine receptors” (The Trustees of Columbia University in the City of New York, priority 2004, dated 2014).
“And” between values parts separate entries of the source, which are not always exact repeats. Identical values can stand only once.

Tests used:
hERG current = hERG current (Homo sapiens, UniProt Q12809); assay: hERG current, PatchXpress 7000A automatic parallel patch clamp in hERG-transfected HEK 293 cells (Example 6); conditions: for Individual Data (% Inhibition): single cell
Experimental: HEK293 cells were transfected with a plasmid containing the hERG cDNA and a neomycin resistance gene. Stable transfectants were selected by culturing the cells in the presence of G418. The selection pressure was maintained by continued culture in the presence of G418. […] Cells for use in electrophysiology were cultured in 35 mm dishes.
Onset and steady state block of hERG current was measured using a pulse pattern with fixed amplitudes (conditioning prepulse: +20 mV for 2 seconds; test pulse: −50 mV for 2 seconds) repeated at 10 second intervals, from a holding potential of −80 mV. Peak tail current was measured during the 2 second step to −50 mV. A steady state was maintained for at least 30 seconds before applying the test compound or the positive control. Peak tail current was monitored until a new steady state was achieved. Test compound concentrations were applied cumulatively in ascending order without washout between applications.
Data acquisition and analysis was performed using the suite of pCLAMP (Vre. 8.2) programs (Axon Instruments, Union City, Calif.). Steady state was defined by the limiting constant rate of change with time (linear time dependence). The steady state before and after application of the test or control compounds was used to calculate the percentage of current inhibited at each concentration. […] Nonlinear squares fits were solved with the Solver add-in for Excel 2000 (Microsoft, Redmond, Wash.).
Multiple compounds of the invention were tested for their effects on hERG currents. The compounds tested were: ARM036-Na, ARM047, ARM048, ARM050, ARM057, ARM064, ARM074, ARM075, ARM076, ARM077, ARM101, ARM102, ARM103, ARM104, ARM106, ARM107 and ARM26. […] Electrophysiological recordings were made using the PatchXpress 7000 A (Molecular Devices) automatic parallel patch clamp system. […] The duration of exposure to each test concentration was 5 minutes.

PKA-phosphorylated RyR2 = molecular target: T1, PKA-phosphorylated RyR2 (Homo sapiens, UniProt Q92736); assay: FKBP12.6 rebinding assay: FKBP12.6 binding to PKA-phosphorylated RyR2 in cardiac SR; conditions: compound 0.5-1000 nM; Michaelis-Menten curve fitting
T1 construct: from tissue
Experimental: Samples are centrifuged at 95,000 g for 10 min and the pellets are washed three times in 0.2 ml imidazole buffer. The final pellets are pooled and resuspended in imidazole buffer (final concentration≈10 μg/μl). […] Samples then are centrifuged at 100,000 g for 10 minutes and pellets washed 3 times with imidizol buffer. […] Immunoblots are developed using an anti-FKBP antibody (1:3,000 dilution). […] The intracellular solution contains (in mM): CsCl, 60; CaCl2, 1; EGTA, 11; MgCl2, 1; K2ATP, 5; HEPES, 10; aspartic acid, 50; pH 7.4 (CsOH). Under these conditions, it is expected that the measured current was carried by Ba^2+ primarily through L-type calcium channels which is referred to as ICa,L. Drugs are applied by a local solution changer and reach the cell membrane within 1 s.
The FKBP12.6 rebinding assay described above is used to determine the amount of FKBP12.6 binding to PKA-phosphorylated RyR2 at various concentrations (0.5-1000 nM) of the compounds shown. EC50 values are calculated using Michaelis-Menten curve fitting.
The EC50 values are calculated using Michaelis-Menten curve fitting.

T1 sequence (Q92736 whole entry): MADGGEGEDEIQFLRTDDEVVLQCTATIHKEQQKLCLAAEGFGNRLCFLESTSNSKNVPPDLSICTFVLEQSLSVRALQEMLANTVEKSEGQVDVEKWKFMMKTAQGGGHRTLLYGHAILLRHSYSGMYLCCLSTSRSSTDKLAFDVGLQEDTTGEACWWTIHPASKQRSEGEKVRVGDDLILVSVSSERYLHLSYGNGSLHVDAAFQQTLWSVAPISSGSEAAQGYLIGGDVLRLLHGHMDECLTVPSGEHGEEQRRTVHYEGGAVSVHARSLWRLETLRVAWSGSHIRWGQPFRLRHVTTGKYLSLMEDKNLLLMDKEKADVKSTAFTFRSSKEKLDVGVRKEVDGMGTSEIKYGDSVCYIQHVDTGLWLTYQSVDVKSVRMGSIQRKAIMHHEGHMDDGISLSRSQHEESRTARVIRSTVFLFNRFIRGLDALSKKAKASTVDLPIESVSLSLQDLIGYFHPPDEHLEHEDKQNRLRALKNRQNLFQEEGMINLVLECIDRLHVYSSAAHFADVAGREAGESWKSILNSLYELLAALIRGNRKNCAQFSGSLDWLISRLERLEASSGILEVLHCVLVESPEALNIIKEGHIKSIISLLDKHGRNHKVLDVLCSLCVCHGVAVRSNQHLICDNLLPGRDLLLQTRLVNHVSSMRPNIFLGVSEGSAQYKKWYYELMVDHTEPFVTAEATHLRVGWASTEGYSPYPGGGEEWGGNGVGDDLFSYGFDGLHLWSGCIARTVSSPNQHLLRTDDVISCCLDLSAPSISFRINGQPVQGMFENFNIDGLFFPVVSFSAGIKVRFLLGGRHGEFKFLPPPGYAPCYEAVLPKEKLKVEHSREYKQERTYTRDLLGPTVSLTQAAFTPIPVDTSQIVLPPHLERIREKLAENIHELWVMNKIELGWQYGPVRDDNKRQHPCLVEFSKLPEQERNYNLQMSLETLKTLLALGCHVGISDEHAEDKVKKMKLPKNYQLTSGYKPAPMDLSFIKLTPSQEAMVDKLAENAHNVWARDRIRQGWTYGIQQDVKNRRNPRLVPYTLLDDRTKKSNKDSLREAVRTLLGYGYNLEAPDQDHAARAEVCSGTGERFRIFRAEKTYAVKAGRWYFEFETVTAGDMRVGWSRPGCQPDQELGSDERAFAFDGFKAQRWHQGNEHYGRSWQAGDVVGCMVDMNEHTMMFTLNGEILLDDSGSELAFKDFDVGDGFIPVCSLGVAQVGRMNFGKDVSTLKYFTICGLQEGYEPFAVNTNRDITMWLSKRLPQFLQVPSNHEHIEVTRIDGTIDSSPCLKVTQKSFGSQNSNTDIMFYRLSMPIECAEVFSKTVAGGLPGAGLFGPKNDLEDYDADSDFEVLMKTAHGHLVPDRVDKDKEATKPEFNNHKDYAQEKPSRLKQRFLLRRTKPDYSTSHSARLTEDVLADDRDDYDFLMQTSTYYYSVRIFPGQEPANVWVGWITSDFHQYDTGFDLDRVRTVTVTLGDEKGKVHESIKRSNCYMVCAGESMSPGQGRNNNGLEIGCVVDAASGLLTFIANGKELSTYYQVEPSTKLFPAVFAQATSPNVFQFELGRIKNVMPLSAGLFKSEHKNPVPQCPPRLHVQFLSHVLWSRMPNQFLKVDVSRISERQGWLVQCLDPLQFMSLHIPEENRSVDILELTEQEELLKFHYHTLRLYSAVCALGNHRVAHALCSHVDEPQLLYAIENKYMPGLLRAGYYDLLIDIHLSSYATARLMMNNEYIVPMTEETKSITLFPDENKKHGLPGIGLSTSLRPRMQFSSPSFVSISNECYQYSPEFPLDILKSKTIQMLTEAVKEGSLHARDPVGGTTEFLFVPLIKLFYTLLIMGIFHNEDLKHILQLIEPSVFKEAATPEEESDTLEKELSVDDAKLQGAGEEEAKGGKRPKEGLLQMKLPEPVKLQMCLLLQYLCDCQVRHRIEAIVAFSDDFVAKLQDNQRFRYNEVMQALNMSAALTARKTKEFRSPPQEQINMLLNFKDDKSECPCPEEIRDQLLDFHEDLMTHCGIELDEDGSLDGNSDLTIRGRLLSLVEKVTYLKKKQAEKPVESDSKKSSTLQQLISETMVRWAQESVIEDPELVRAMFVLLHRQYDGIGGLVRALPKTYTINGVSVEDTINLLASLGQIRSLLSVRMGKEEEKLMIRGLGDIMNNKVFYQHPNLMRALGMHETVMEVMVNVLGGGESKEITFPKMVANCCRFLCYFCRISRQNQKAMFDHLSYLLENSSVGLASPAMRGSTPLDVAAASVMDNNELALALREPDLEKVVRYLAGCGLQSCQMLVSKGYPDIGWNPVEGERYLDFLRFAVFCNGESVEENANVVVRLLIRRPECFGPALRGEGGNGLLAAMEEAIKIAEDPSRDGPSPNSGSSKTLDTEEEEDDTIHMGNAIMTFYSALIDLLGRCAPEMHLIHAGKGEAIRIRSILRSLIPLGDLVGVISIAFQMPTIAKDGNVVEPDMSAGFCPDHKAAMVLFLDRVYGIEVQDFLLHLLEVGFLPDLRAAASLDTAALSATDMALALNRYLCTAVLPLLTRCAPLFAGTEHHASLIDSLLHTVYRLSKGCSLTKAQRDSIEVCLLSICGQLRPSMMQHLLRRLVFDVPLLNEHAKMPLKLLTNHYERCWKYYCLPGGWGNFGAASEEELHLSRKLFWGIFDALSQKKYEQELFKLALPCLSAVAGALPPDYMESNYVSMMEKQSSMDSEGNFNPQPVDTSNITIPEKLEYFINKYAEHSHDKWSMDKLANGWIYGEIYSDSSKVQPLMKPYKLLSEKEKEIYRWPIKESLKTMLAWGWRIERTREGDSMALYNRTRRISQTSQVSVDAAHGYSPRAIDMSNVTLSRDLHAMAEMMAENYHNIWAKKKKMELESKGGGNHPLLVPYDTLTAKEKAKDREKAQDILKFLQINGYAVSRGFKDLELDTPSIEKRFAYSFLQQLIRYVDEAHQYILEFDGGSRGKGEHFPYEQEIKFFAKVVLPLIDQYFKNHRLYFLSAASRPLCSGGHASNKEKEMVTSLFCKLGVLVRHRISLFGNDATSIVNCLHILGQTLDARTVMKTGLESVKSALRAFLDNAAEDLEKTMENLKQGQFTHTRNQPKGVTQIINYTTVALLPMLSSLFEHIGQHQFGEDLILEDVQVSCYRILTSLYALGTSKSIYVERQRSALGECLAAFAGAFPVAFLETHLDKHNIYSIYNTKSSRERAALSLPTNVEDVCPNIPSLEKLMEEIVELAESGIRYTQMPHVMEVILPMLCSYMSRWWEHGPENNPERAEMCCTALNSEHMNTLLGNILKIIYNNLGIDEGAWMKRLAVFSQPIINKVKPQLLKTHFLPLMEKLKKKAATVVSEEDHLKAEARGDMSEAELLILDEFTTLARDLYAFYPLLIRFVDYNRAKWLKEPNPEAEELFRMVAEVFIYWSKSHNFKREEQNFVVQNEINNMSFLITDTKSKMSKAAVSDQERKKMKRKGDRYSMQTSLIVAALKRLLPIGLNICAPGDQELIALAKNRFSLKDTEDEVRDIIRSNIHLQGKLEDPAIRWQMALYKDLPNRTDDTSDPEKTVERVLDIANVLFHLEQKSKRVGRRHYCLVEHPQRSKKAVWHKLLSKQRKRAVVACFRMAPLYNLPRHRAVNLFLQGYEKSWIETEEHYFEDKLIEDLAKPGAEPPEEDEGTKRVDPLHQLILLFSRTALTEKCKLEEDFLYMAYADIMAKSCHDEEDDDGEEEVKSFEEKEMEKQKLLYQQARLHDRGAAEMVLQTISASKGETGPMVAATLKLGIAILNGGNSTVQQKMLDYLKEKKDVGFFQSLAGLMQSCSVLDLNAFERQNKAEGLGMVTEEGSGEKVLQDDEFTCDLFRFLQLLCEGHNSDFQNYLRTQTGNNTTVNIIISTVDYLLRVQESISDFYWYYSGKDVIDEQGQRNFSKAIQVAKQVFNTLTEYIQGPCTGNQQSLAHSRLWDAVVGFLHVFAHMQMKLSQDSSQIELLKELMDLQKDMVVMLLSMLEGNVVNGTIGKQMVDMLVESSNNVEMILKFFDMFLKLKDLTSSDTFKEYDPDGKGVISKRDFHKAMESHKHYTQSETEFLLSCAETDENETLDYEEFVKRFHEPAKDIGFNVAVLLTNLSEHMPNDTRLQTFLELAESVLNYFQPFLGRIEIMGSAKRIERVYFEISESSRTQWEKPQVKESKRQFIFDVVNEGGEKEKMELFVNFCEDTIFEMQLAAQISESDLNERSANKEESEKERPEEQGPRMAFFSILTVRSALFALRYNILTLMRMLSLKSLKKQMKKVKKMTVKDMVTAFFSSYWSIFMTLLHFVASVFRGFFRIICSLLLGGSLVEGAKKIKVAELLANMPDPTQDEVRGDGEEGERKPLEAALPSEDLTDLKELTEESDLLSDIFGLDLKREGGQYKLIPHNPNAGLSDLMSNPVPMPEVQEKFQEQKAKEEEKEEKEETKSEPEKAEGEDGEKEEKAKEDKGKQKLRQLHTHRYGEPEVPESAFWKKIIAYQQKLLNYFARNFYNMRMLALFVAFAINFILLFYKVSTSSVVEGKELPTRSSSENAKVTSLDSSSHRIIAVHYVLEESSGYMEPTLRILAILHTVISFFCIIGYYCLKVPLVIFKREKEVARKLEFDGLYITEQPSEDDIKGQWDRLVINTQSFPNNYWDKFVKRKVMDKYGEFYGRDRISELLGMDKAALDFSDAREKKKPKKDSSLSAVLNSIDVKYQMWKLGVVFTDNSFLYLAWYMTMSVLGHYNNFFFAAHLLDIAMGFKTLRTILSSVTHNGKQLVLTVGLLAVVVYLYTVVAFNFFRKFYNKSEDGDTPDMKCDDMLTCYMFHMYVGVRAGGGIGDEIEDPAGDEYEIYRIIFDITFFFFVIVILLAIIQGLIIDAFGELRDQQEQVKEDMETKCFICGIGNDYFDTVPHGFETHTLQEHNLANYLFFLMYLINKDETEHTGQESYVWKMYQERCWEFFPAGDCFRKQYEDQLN
T1 sequence (P68106 whole entry partner): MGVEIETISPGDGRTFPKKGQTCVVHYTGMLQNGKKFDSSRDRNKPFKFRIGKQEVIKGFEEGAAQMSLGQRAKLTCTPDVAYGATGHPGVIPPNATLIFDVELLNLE

| EC50 (PKA-phosphorylated RyR2) | Compound | also measured |
| --- | --- | --- |
|  | COc1ccc2c(c1)CN(C(=O)C(=O)[O-])CCS2.[Na+] [ARM036-Na] | Mean % hERG Inhibition (hERG current; 0.01 μM): 0.2%; Individual Data (% Inhibition) (hERG current; 0.01 μM): 0.0% and 0.3%; Mean % hERG Inhibition (hERG current; 0.1 μM): 5.0%; Individual Data (% Inhibition) (hERG current; 0.1 μM): 10.0% and 0.0%; Mean % hERG Inhibition (hERG current; 1 μM): 5.5%; Individual Data (% Inhibition) (hERG current; 1 μM): 2.4% and 8.6%; Mean % hERG Inhibition (hERG current; 10 μM): 6.7%; Individual Data (% Inhibition) (hERG current; 10 μM): 5.1% and 8.2%; hERG current inhibition at the highest concentration tested (hERG current; highest concentration tested (10 μM)): less than 50% |
| 150 nM | COc1ccc2c(c1)CN(S(=O)(=O)CCN1CCC(Cc3ccccc3)CC1)CCS2 [S1] |  |
| 211 nM | CCCCN(CCCC)CCS(=O)(=O)N1CCSc2ccc(OC)cc2C1 [S2] |  |
| 102 nM | COc1ccc2c(c1)CN(S(C)(=O)=O)CCS2 [S4] |  |
| 208 nM | COc1ccc2c(c1)CN(S(=O)(=O)c1ccc(C)cc1)CCS2 [S5] |  |
| 252 nM | COc1ccc2c(c1)CN(C(=O)N1CCC(Cc3ccccc3)CC1)CCS2 [S6] |  |
| 55 nM | COc1ccc2c(c1)CN(C(=O)CI)CCS2 [S7] |  |
| 205 nM | COc1ccc2c(c1)CN(C(=O)c1ccccc1)CCS2 [S9] |  |
| 181 nM | COc1ccc2c(c1)CN(C(=O)Nc1ccccc1)CCS2 [S11] |  |
| 197 nM | COc1ccc2c(c1)CN(C(=S)Nc1ccccc1)CCS2 [S12] |  |
| 265 nM | COc1ccc2c(c1)CN(C(=O)CCC(=O)N1CCSc3ccc(OC)cc3C1)CCS2 [S19] |  |
| 355 nM | COc1ccc2c(c1)CN(C(=O)c1cccc(C(=O)N3CCSc4ccc(OC)cc4C3)n1)CCS2 [S22] |  |
| 268 nM | COc1ccc2c(c1)CN(C(=O)CCN1CCC(Cc3ccccc3)CC1)CCS2(=O)=O [S23] |  |
| 40 nM | COc1ccc2c(c1)C(=O)NCCS2 [S25] |  |
| ~50 nM | C=CC(=O)N1CCSc2ccc(OC)cc2C1 [S27] |  |
| 44 nM | COc1ccc2c(c1)CN(C(=O)CC(=O)O)CCS2 [S38] |  |
| 100 nM | COc1ccc2c(c1)CN(C(=O)c1ccc(N=[N+]=[N-])cc1O)CCS2 [S40] |  |
| 80 nM | COc1ccc2c(c1)CN(C(=O)C(=O)NCCSSCCNC(=O)c1ccc(N=[N+]=[N-])cc1[N+](=O)[O-])CCS2 [S43] |  |
| 121 nM | COc1ccc2c(c1)CN(C(=O)C(=O)NCCSSCCNC(=O)C(=O)N1CCSc3ccc(OC)cc3C1)CCS2 [S44] |  |
| 80 nM | COc1ccc2c(c1)CN(C(=O)C(=O)NCCSSCCNC(=O)c1ccc(N=[N+]=[N-])cc1O)CCS2 [S45] |  |
| 150 nM | COc1ccc2c(c1)CN(C(N)=O)CCS2 [S46] |  |
